Numbered stars: 1 amine (or outer) side, 2 acyl side, 3 side chain; on linkers, the order of the positions; unused ones are H or OH. Bridge positions count the residues as written; N and C are the ends. Square brackets hold non-standard residues; d marks the D form. Peptide text beside a SMILES is read from it. Trp(βS-Me,7-OMe) = COc1cccc2c([C@H](C)[C@H](N)C(=O)O)c[nH]c12; Achc(cis-1,4) = O=C([C@H]1CC[C@@H](N[*:1])CC1)[*:2]; Trp(7-Cl) = N[C@@H](Cc1c[nH]c2c(Cl)cccc12)C(=O)O; Phe(3-COOH) = N[C@@H](Cc1cccc(C(=O)O)c1)C(=O)O; Phe(4-CONH2) = NC(=O)c1ccc(C[C@H](N)C(=O)O)cc1; Phe(4-COOH) = N[C@@H](Cc1ccc(C(=O)O)cc1)C(=O)O; 4Pal(3S-Me) = C[C@@H](c1ccncc1)[C@H](N)C(=O)O; Trp(7-aza) = N[C@@H](Cc1c[nH]c2ncccc12)C(=O)O; Phe(4-CH2NH2) = NCc1ccc(C[C@H](N)C(=O)O)cc1; dPro(4S-NH2) = N[C@@H]1CN[C@@H](C(=O)O)C1; Pip(5R-OH) = O=C(O)[C@@H]1CC[C@@H](O)CN1; αMeW = C[C@](N)(Cc1c[nH]c2ccccc12)C(=O)O; X1 = O=C([C@@H]1CC[C@H](N[*:1])C1)[*:2]; X6 = O=C([C@@H](N[*:1])C1(O)CC1)[*:2]; N(CH2CH2COOH)Gly = O=C(O)CCNCC(=O)O; 4Pal = N[C@@H](Cc1ccncc1)C(=O)O; NMeE = CN[C@@H](CCC(=O)O)C(=O)O; dHyp = O=C(O)[C@H]1C[C@H](O)CN1; Pip = O=C(O)[C@@H]1CCCCN1; αMeS = C[C@](N)(CO)C(=O)O; Nle = CCCC[C@H](N)C(=O)O; Sar = CNCC(=O)O
Target: T1, TNFα-induced NF-κB signal transduction pathway (TNFR1 signaling) in THP-1 cells (Homo sapiens, UniProt P19438)
T1 sequence (P19438 30-455): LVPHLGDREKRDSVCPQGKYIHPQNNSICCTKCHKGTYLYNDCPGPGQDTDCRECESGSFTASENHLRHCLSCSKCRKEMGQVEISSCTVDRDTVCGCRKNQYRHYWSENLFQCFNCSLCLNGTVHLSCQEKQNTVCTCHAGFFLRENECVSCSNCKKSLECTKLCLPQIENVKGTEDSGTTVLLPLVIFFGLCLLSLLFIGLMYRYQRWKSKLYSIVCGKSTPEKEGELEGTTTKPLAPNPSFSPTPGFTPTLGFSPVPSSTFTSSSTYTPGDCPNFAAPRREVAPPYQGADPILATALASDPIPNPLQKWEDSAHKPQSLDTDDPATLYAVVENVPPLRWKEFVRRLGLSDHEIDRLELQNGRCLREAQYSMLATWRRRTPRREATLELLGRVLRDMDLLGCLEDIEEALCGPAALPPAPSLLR
Assay: THP-1 Lucia NF-κB reporter cell assay, inhibition of TNFα-induced NF-κB signaling
Assay type: cell-based
Details: THP-1 NF-κB Lucia reporter cells, 10 ng/mL TNFα, 16-18 h, secreted luciferase; read-out: THP-1 IC50
Outline: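 IC50 from a 4-parameter logistic fit of secreted luciferase luminescence (QUANTI-Luc), normalised to min/max controls. Reporter THP-1 cells were exposed to peptides for 1 h at 37 °C before 10 ng/mL TNFα (final) was added overnight (16–18 h).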

Row | SMILES | IC50 [nM]
1 | CCCC[C@@H]1NC(=O)CSC[C@@H](C(N)=O)NC(=O)[C@](C)(Cc2c[nH]c3ccccc23)NC(=O)CN(C)C(=O)[C@H](Cc2ccc(O)cc2)NC(=O)[C@H](Cc2ccc(C(=O)O)cc2)NC(=O)[C@](C)(CO)NC(=O)[C@H](Cc2c[nH]c3c(Cl)cccc23)NC(=O)[C@H](Cc2ccncc2)NC(=O)[C@H](CC(N)=O)NC(=O)[C@H](CCC(=O)O)N(C)C(=O)[C@H](Cc2c[nH]c3ncccc23)NC(=O)[C@H](C2(O)CC2)NC(=O)[C@H](Cc2ccncc2)NC1=O [SEQ ID NO. 281] ({CH2CO}-[Nle][4Pal][X6][Trp(7-aza)][NMeE]N[4Pal][Trp(7-Cl)][αMeS][Phe(4-COOH)]Y[Sar][αMeW]C-NH2; thioether N-14) | 8.4
2 | CCCC[C@@H]1NC(=O)[C@@H]2CC[C@@H](C2)NC(=O)[C@H]([C@@H](C)c2c[nH]c3c(OC)cccc23)NC(=O)CN(C)C(=O)[C@H](Cc2ccc(O)cc2)NC(=O)[C@H](Cc2ccc(C(N)=O)cc2)NC(=O)[C@](C)(CO)NC(=O)[C@H](Cc2c[nH]c3c(Cl)cccc23)NC(=O)[C@H](Cc2ccncc2)NC(=O)[C@H](CC(N)=O)NC(=O)[C@H]2C[C@H](N)CN2C(=O)[C@H](Cc2c[nH]c3ccccc23)NC(=O)[C@@H]2CC[C@@H](O)CN2C(=O)[C@H](Cc2ccncc2)NC1=O [SEQ ID NO. 144] (cyclo([4Pal][Trp(7-Cl)][αMeS][Phe(4-CONH2)]Y[Sar][Trp(βS-Me,7-OMe)][X1][Nle][4Pal][Pip(5R-OH)]W[dPro(4S-NH2)]N)) | 0.6
3 | CCCC[C@@H]1NC(=O)[C@H]2CC[C@H](CC2)NC(=O)[C@H]([C@@H](C)c2c[nH]c3c(OC)cccc23)NC(=O)CN(C)C(=O)[C@H](Cc2ccc(O)cc2)NC(=O)[C@H](Cc2ccc(C(=O)O)cc2)NC(=O)[C@](C)(CO)NC(=O)[C@H](Cc2c[nH]c3c(Cl)cccc23)NC(=O)[C@H](Cc2ccncc2)NC(=O)[C@H](CC(N)=O)NC(=O)[C@H](CCC(=O)O)N(C)C(=O)[C@H](Cc2c[nH]c3ccccc23)NC(=O)[C@H](CO)NC(=O)[C@H](Cc2ccc(CN)cc2)NC1=O [SEQ ID NO. 244] (cyclo([4Pal][Trp(7-Cl)][αMeS][Phe(4-COOH)]Y[Sar][Trp(βS-Me,7-OMe)][Achc(cis-1,4)][Nle][Phe(4-CH2NH2)]SW[NMeE]N)) | 4.5
4 | CCCC[C@@H]1NC(=O)CSC[C@@H](C(N)=O)NC(=O)[C@H]([C@@H](C)c2c[nH]c3c(OC)cccc23)NC(=O)CN(C)C(=O)[C@H](Cc2ccc(O)cc2)NC(=O)[C@H](Cc2ccc(C(=O)O)cc2)NC(=O)[C@](C)(CO)NC(=O)[C@H](Cc2c[nH]c3c(Cl)cccc23)NC(=O)[C@H](Cc2ccncc2)NC(=O)[C@H](CC(N)=O)NC(=O)[C@H](CCC(=O)O)N(C)C(=O)[C@H](Cc2c[nH]c3ncccc23)NC(=O)[C@H](CO)NC(=O)[C@H]([C@@H](C)c2ccncc2)NC1=O [SEQ ID NO. 180] ({CH2CO}-[Nle][4Pal(3S-Me)]S[Trp(7-aza)][NMeE]N[4Pal][Trp(7-Cl)][αMeS][Phe(4-COOH)]Y[Sar][Trp(βS-Me,7-OMe)]C-NH2; thioether N-14) | 2
5 | CCCC[C@@H]1NC(=O)[C@@H]2CC[C@@H](C2)NC(=O)[C@H]([C@@H](C)c2c[nH]c3c(OC)cccc23)NC(=O)CN(C)C(=O)[C@H](Cc2cccc(C(=O)O)c2)NC(=O)[C@H](Cc2ccc(C(N)=O)cc2)NC(=O)[C@](C)(CO)NC(=O)[C@H](Cc2c[nH]c3c(Cl)cccc23)NC(=O)[C@H](Cc2ccc(C(=O)O)cc2)NC(=O)[C@H](CC(N)=O)NC(=O)[C@H]2C[C@H](O)CN2C(=O)[C@H](Cc2c[nH]c3ccccc23)NC(=O)[C@@H]2CC[C@@H](O)CN2C(=O)[C@H](Cc2ccncc2)NC1=O [SEQ ID NO. 17] (cyclo([4Pal][Pip(5R-OH)]W[dHyp]N[Phe(4-COOH)][Trp(7-Cl)][αMeS][Phe(4-CONH2)][Phe(3-COOH)][Sar][Trp(βS-Me,7-OMe)][X1][Nle])) | 0.8
6 | CCCC[C@@H]1NC(=O)CSC[C@@H](C(N)=O)NC(=O)[C@H]([C@@H](C)c2c[nH]c3c(OC)cccc23)NC(=O)CN(C)C(=O)[C@H](Cc2ccc(O)cc2)NC(=O)[C@H](Cc2ccc(C(=O)O)cc2)NC(=O)[C@](C)(CO)NC(=O)[C@H](Cc2c[nH]c3c(Cl)cccc23)NC(=O)[C@H](Cc2ccncc2)NC(=O)[C@H](CC(N)=O)NC(=O)CN(CCC(=O)O)C(=O)[C@H](Cc2c[nH]c3ncccc23)NC(=O)[C@@H]2CCCCN2C(=O)[C@H](Cc2ccncc2)NC1=O [SEQ ID NO. 220] ({CH2CO}-[Nle][4Pal][Pip][Trp(7-aza)][N(CH2CH2COOH)Gly]N[4Pal][Trp(7-Cl)][αMeS][Phe(4-COOH)]Y[Sar][Trp(βS-Me,7-OMe)]C-NH2; thioether N-14) | 2.9

Source: patent US20240287138A1, “CYCLIC PEPTIDES FOR INHIBITING TNF RECEPTOR 1 ACTIVITY” (Merck Sharp & Dohme LLC, priority 2023, published 2024)
